For 34 compounds, IC50 results are on record in patent publication US10329302B2, “Bicyclic-fused heteroaryl or aryl compounds” (Pfizer Inc., priority 2014, dated 2019).

In the assay the target is human IRAK4 kinase domain (aa 154-460) (Homo sapiens (Human), UniProt Q9NWZ3). The assay is described as follows: IRAK4 Enzymatic DELFIA Assay, Protocol B. The conditions noted are these: human IRAK4 kinase domain (aa 154-460), 0.6 mM ATP (KM); read-out: IRAK4 DELFIA Protocol B IC50. It counts as biochemical. The text has this: IRAK4 Enzymatic DELFIA Assay, Protocol B.
Chain of human IRAK4 kinase domain (aa 154-460) (Q9NWZ3 154-460): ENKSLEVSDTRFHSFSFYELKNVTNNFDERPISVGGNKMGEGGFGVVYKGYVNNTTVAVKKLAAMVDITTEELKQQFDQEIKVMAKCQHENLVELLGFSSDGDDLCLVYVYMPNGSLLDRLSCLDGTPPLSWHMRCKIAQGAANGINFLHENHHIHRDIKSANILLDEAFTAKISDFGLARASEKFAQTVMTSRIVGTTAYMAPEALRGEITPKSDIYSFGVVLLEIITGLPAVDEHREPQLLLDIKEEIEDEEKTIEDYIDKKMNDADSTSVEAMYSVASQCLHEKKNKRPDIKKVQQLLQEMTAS

Take `CC(C)Oc1cc2c(OCC3CCN(C(=O)CC#N)CC3)nccc2cc1C(N)=O` [Example 62, 1-{[1-(cyanoacetyl)piperidin-4-yl]methoxy}-7-(propan-2-yloxy)isoquinoline-6-carboxamide]: the IC50 was determined as 1290 nM.

Consider `CC(C)Oc1cc2c(OC[C@@H]3CCCN3C(=O)CC#N)nccc2cc1C(N)=O` [Example 63, 1-{[(2S)-1-(cyanoacetyl)pyrrolidin-2-yl]methoxy}-7-(propan-2-yloxy)isoquinoline-6-carboxamide], for which the IC50 turned out to be 252 nM.

With `CC(C)Oc1cc2c(OC[C@H]3COCCN3C(=O)CC#N)nccc2cc1C(N)=O` [Example 64, 1-{[(3R)-4-(cyanoacetyl)morpholin-3-yl]methoxy}-7-(propan-2-yloxy)isoquinoline-6-carboxamide], the IC50 was determined as 641 nM.

Consider `CC(C)Oc1cc2c(OCC3(NC(=O)CC#N)CCCC3)nccc2cc1C(N)=O` [Example 65, 1-({1-[(cyanoacetyl)amino]cyclopentyl}methoxy)-7-(propan-2-yloxy)isoquinoline-6-carboxamide], for which the IC50 was found to be 563 nM.

`CC(C)Oc1cc2c(OC[C@H]3CCN(C(=O)CC#N)C3)nccc2cc1C(N)=O` [Example 66, 1-{[(3S)-1-(cyanoacetyl)pyrrolidin-3-yl]methoxy}-7-(propan-2-yloxy)isoquinoline-6-carboxamide]: the IC50 was determined as 255 nM.

As for `CC(C)Oc1cc2c(OC[C@@H]3CCCN(C(=O)CC#N)C3)nccc2cc1C(N)=O` [Example 67, 1-{[(3R)-1-(cyanoacetyl)piperidin-3-yl]methoxy}-7-(propan-2-yloxy)isoquinoline-6-carboxamide], the IC50 is 1730 nM.

Regarding `CC(C)Oc1cc2c(O[C@@H]3C[C@H]4C[C@@H]3CN(C(=O)CC#N)C4)nccc2cc1C(N)=O` [Example 68, 1-{[(1R,5R,6R)-3-(cyanoacetyl)-3-azabicyclo[3.2.1]oct-6-yl]oxy}-7-(propan-2-yloxy)isoquinoline-6-carboxamide], the IC50 was determined as 320 nM.

As for `CC(C)Oc1cc2c(OC[C@@H]3CCN(C(=O)CC#N)C3)nccc2cc1C(N)=O` [Example 70, 1-{[(3R)-1-(cyanoacetyl)pyrrolidin-3-yl]methoxy}-7-(propan-2-yloxy)isoquinoline-6-carboxamide], the IC50 was found to be 423 nM.

`CC(C)Oc1cc2c(OC3C[C@@H]4CN[C@H]3C4)nccc2cc1C(N)=O` (stereo partly drawn) [Example 72, 1-[(1S,4R)-2-azabicyclo[2.2.1]hept-6-yloxy]-7-(propan-2-yloxy)isoquinoline-6-carboxamide]: the concentration for half-maximal inhibition (IC50) was determined as 2620 nM.

Take `CC(C)Oc1cc2c(O[C@H]3C[C@@H]4C[C@H]3CN4C(=O)CC#N)nccc2cc1C(N)=O` [Example 74, 1-{[(1S,4S,5S)-2-(cyanoacetyl)-2-azabicyclo[2.2.1]hept-5-yl]oxy}-7-(propan-2-yloxy)isoquinoline-6-carboxamide]: the IC50 was 43 nM.

As to `CC(C)Oc1cc2c(OC[C@@H]3CN(C(=O)CC#N)CCO3)nccc2cc1C(N)=O` [Example 75, 1-{[(2S)-4-(cyanoacetyl)morpholin-2-yl]methoxy}-7-(propan-2-yloxy)isoquinoline-6-carboxamide], the IC50 turned out to be 4040 nM.

Consider `CC(C)Oc1cc2c(OCC3(F)CCN(C(=O)CC#N)CC3)nccc2cc1C(N)=O` [Example 76, 1-{[1-(cyanoacetyl)-4-fluoropiperidin-4-yl]methoxy}-7-(propan-2-yloxy)isoquinoline-6-carboxamide], for which the IC50 is 1720 nM.

Consider `CC(C)Oc1cc2c(OC[C@@]34C[C@@H]3CN(C(=O)CC#N)C4)nccc2cc1C(N)=O` [Example 77, 1-{[(1S,5S)-3-(cyanoacetyl)-3-azabicyclo[3.1.0]hex-1-yl]methoxy}-7-(propan-2-yloxy)isoquinoline-6-carboxamide], for which the IC50 was determined as 468 nM.

For the compound `CC(C)Oc1cc2c(OC[C@H]3CN(C(=O)CC#N)CCO3)nccc2cc1C(N)=O` [Example 78, 1-{[(2R)-4-(cyanoacetyl)morpholin-2-yl]methoxy}-7-(propan-2-yloxy)isoquinoline-6-carboxamide], the IC50 stood at 4740 nM.

In the case of `CC(C)Oc1cc2c(O[C@H]3CC[C@@H]4CN(C(=O)CC#N)C[C@@H]43)nccc2cc1C(N)=O` [Example 79, 1-{[(3aR,4S,6aS)-2-(cyanoacetyl)octahydrocyclopenta[c]pyrrol-4-yl]oxy}-7-(propan-2-yloxy)isoquinoline-6-carboxamide], the IC50 was 457 nM.

Consider `CC[C@H]1CN(C(=O)CC#N)C[C@@H]1COc1nccc2cc(C(N)=O)c(OC(C)C)cc12` [Example 80, 1-{[(3R,4R)-1-(cyanoacetyl)-4-ethylpyrrolidin-3-yl]methoxy}-7-(propan-2-yloxy)isoquinoline-6-carboxamide], for which the IC50 stood at 333 nM.

Consider `CC(C)Oc1cc2c(O[C@H]3C[C@@H]4C[C@H]3CN(C(=O)CC#N)C4)nccc2cc1C(N)=O` [Example 81, 1-{[(1S,5S,6S)-3-(cyanoacetyl)-3-azabicyclo[3.2.1]oct-6-yl]oxy}-7-(propan-2-yloxy)isoquinoline-6-carboxamide], for which the IC50 was found to be 479 nM.

Take `CC(C)Oc1cc2c(OCC3(C)CCN(C(=O)CC#N)C3)nccc2cc1C(N)=O` (stereo not shown) [Example 82, 1-{[1-(cyanoacetyl)-3-methylpyrrolidin-3-yl]methoxy}-7-(propan-2-yloxy)isoquinoline-6-carboxamide]: the IC50 stood at 969 nM.

With `CC(C)Oc1cc2c(OC[C@@H]3COCCN3C(=O)CC#N)nccc2cc1C(N)=O` [Example 83, 1-{[(3S)-4-(cyanoacetyl)morpholin-3-yl]methoxy}-7-(propan-2-yloxy)isoquinoline-6-carboxamide], the IC50 was 175 nM.

Consider `CO[C@H]1CN(C(=O)CC#N)C[C@@H]1COc1nccc2cc(C(N)=O)c(OC(C)C)cc12` [Example 84, 1-{[(3R,4R)-1-(cyanoacetyl)-4-methoxypyrrolidin-3-yl]methoxy}-7-(propan-2-yloxy)isoquinoline-6-carboxamide], for which the IC50 came to 534 nM.

In the case of `CC(C)Oc1cc2c(OC[C@H]3CN(C(=O)CC#N)C[C@@H]3C)nccc2cc1C(N)=O` [Example 85, 1-{[(3R,4R)-1-(cyanoacetyl)-4-methylpyrrolidin-3-yl]methoxy}-7-(propan-2-yloxy)isoquinoline-6-carboxamide], the IC50 turned out to be 610 nM.

Consider `CC(C)Oc1cc2c(OCC3(C)CCN(C(=O)CC#N)CC3)nccc2cc1C(N)=O` [Example 86, 1-{[1-(cyanoacetyl)-4-methylpiperidin-4-yl]methoxy}-7-(propan-2-yloxy)isoquinoline-6-carboxamide], for which the IC50 stood at 216 nM.

Turning to `CC(C)Oc1cc2c(OC[C@@H]3[C@H]4CN(C(=O)CC#N)C[C@@H]34)ccnc2cc1C(N)=O` [Example 87, 4-{[(1R,5S,6r)-3-(cyanoacetyl)-3-azabicyclo[3.1.0]hex-6-yl]methoxy}-6-(propan-2-yloxy)quinoline-7-carboxamide], the IC50 came out at 2620 nM.

Take `CC(C)Oc1cc2c(OC[C@H]3CN(C(=O)CC#N)C[C@@H]3C)ccnc2cc1C(N)=O` [Example 88, 4-{[(3R,4R)-1-(cyanoacetyl)-4-methylpyrrolidin-3-yl]methoxy}-6-(propan-2-yloxy)quinoline-7-carboxamide]: the IC50 was found to be 292 nM.

Turning to `CC(C)Oc1cc2c(O[C@@H]3C[C@H]4C[C@@H]3CN(C(=O)CC#N)C4)ccnc2cc1C(N)=O` [Example 89, 4-{[(1R,5R,6R)-3-(cyanoacetyl)-3-azabicyclo[3.2.1]oct-6-yl]oxy}-6-(propan-2-yloxy)quinoline-7-carboxamide], the IC50 was found to be 395 nM.

For the compound `CC(C)Oc1cc2c(OC[C@@]34C[C@@H]3CN(C(=O)CC#N)C4)ccnc2cc1C(N)=O` [Example 90, 4-{[(1S,5S)-3-(cyanoacetyl)-3-azabicyclo[3.1.0]hex-1-yl]methoxy}-6-(propan-2-yloxy)quinoline-7-carboxamide], the IC50 stood at 438 nM.

With `CC(C)Oc1cc2c(OCC3(C)CCN(C(=O)CC#N)CC3)ccnc2cc1C(N)=O` [Example 91, 4-{[1-(cyanoacetyl)-4-methylpiperidin-4-yl]methoxy}-6-(propan-2-yloxy)quinoline-7-carboxamide], the IC50 stood at 489 nM.

Consider `CC(C)Oc1cc2c(OC[C@H]3CCCN(C(=O)CC#N)C3)ccnc2cc1C(N)=O` [Example 93, 4-{[(3S)-1-(cyanoacetyl)piperidin-3-yl]methoxy}-6-(propan-2-yloxy)quinoline-7-carboxamide], for which the IC50 was determined as 1520 nM.

Consider `CC(C)Oc1cc2c(OC[C@@]34C[C@@H]3CN(C(=O)CC#N)C4)ccnc2cc1C(N)=O` [Example 94, 4-{[(1S,5S)-3-(cyanoacetyl)-3-azabicyclo[3.1.0]hex-1-yl]methoxy}-6-(propan-2-yloxy)quinoline-7-carboxamide], for which the IC50 was 526 nM.

Take `CC(C)Oc1cc2c(OCC3(F)CCN(C(=O)CC#N)CC3)ccnc2cc1C(N)=O` [Example 95, 4-{[1-(cyanoacetyl)-4-fluoropiperidin-4-yl]methoxy}-6-(propan-2-yloxy)quinoline-7-carboxamide]: the IC50 was 3170 nM.

Take `CO[C@H]1CN(C(=O)CC#N)C[C@@H]1COc1ccnc2cc(C(N)=O)c(OC(C)C)cc12` [Example 96, 4-{[(3R,4R)-1-(cyanoacetyl)-4-methoxypyrrolidin-3-yl]methoxy}-6-(propan-2-yloxy)quinoline-7-carboxamide]: the IC50 stood at 301 nM.

Take `CC(C)Oc1cc2c(OC[C@@H]3CCCN(C(=O)CC#N)C3)ccnc2cc1C(N)=O` [Example 97, 4-{[(3R)-1-(cyanoacetyl)piperidin-3-yl]methoxy}-6-(propan-2-yloxy)quinoline-7-carboxamide]: the IC50 is 2740 nM.

`CC(C)Oc1cc2c(OC[C@@H]3CN(C(=O)CC#N)CCO3)ccnc2cc1C(N)=O` [Example 98, 4-{[(2S)-4-(cyanoacetyl)morpholin-2-yl]methoxy}-6-(propan-2-yloxy)quinoline-7-carboxamide]: the IC50 was 575 nM.

For the compound `CC(C)Oc1cc2c(OCC3CCCCN3C(=O)CC#N)ccnc2cc1C(N)=O` (stereo not shown) [Example 99, 4-{[1-(cyanoacetyl)piperidin-2-yl]methoxy}-6-(propan-2-yloxy)quinoline-7-carboxamide], the IC50 came to 524 nM.
